Experimental data published in patent publication US20260216123A1, “PHARMACEUTICAL COMPOSITION FOR PREVENTING OR TREATING DEGENERATIVE OSTEOARTHRITIS” (GLACEUM INC., priority 2023, published 2026).

Legend:
Format in all cases: in vivo
IL-6 = assay: Immunohistochemical analysis of knee joint tissue in MIA-OA animal model: IL-6; settings: MIA-OA rat; immunohistochemistry; FIG. 5
Protocol: (§1) All animals were allowed to acclimatize for one week after introduction to the laboratory environment. On the day of the start of the experiment, monosodium iodoacetate (MIA, Sigma, Cat. No. 12512) was dissolved in saline for injection at a concentration of 30 mg/mL, and 50 μL of the solution was administered once on the day of the start of the experiment. The animals were divided into groups as follows. The animals were randomly distributed so that the average of each group was distributed as evenly as possible according to the pain threshold evaluation values ranked, so as to obtain the number specified in the “Constitution of Test Groups” table. Individual identification was done by writing numbers directly on the tails of the animals. Individual identification cards of different colors were attached to the housing boxes according to each dose. An animal room usage record sheet containing the test number, animal room usage period, principal investigator name, subinvestigator name, emergency contact information, etc. was attached to the animal room entrance. […]
(§2) The histopathological analysis of knee joint tissue was performed using the same model as that in Experimental Example 1. […] Then, the Dab-positive area expressing each cytokine in the synovium was extracted using ImageJ software (Wayne Rasband, NIH, USA) and expressed as a percentage relative to the total nuclear area.

[1] = test system: knee joint tissue of MIA-OA rat model; assay: Histopathological analysis of knee joint tissue (Safranin O staining, OARSI and Mankin scores) in MIA-OA animal model
Protocol: All animals were allowed to acclimatize for one week after introduction to the laboratory environment. On the day of the start of the experiment, monosodium iodoacetate (MIA, Sigma, Cat. No. 12512) was dissolved in saline for injection at a concentration of 30 mg/mL, and 50 μL of the solution was administered once on the day of the start of the experiment. The animals were divided into groups as follows. The animals were randomly distributed so that the average of each group was distributed as evenly as possible according to the pain threshold evaluation values ranked, so as to obtain the number specified in the “Constitution of Test Groups” table. Individual identification was done by writing numbers directly on the tails of the animals. Individual identification cards of different colors were attached to the housing boxes according to each dose. An animal room usage record sheet containing the test number, animal room usage period, principal investigator name, subinvestigator name, emergency contact information, etc. was attached to the animal room entrance. The test groups consisted of WT, vehicle, 25 mg/kg Compound 2, and 50 mg/kg Compound 2, respectively, which were administered orally once a day for a total of 21 days starting from 3 days after MIA administration.
Histopathological analysis of knee joint tissue was performed using the same model as that in Experimental Example 1. For histopathological analysis, Safranin 0 staining was performed, and two evaluators scored the severity of osteoarthritis according to the following evaluation criteria. As the analysis criteria, OARSI and total Mankin scores were analyzed. The OARSI analysis criteria were scored as follows: 0: normal cartilage surface; 1: cartilage surface is normal but cell death is found; 2: disruption of the cartilage surface and fibrosis of the surface layer; 3: splitting along the longitudinal axis of cartilage; 4: damage and infiltration to the middle part of cartilage; 5: exposure of stromal bone area; and 6: complete cartilage damage and formation of osteophytes. The total Mankin score analysis criteria were analyzed for four items: structure (0-6), cell (0-3), Safranin 0 (0-4), and tidemark (0-1). A higher score for each item indicates more damage to chondrocytes cells and structure.

MCP-1 = assay: Immunohistochemical analysis of knee joint tissue in MIA-OA animal model: MCP-1; settings: MIA-OA rat; immunohistochemistry; FIG. 6
Protocol: as §1, §2

MMP3 = assay: Immunohistochemical analysis of knee joint tissue in MIA-OA animal model: MMP3; settings: MIA-OA rat; immunohistochemistry; FIG. 7
Protocol: as §1, §2

MIA-induced OA rat model [2] = assay: Pain suppression (nociceptive pain threshold, dynamic plantar aesthesiometer) in MIA-induced OA rat model; settings: FIG. 1
Protocol: All animals were allowed to acclimatize for one week after introduction to the laboratory environment. On the day of the start of the experiment, monosodium iodoacetate (MIA, Sigma, Cat. No. 12512) was dissolved in saline for injection at a concentration of 30 mg/mL, and 50 μL of the solution was administered once on the day of the start of the experiment. The animals were divided into groups as follows. The animals were randomly distributed so that the average of each group was distributed as evenly as possible according to the pain threshold evaluation values ranked, so as to obtain the number specified in the “Constitution of Test Groups” table. Individual identification was done by writing numbers directly on the tails of the animals. Individual identification cards of different colors were attached to the housing boxes according to each dose. […]
The nociceptive pain threshold (g) was measured using a dynamic plantar aesthesiometer (Ugo Basile, 37400, Comerio, Italy), a device in which the force applied to the animal's paw gradually increases over a certain period of time. […] The results for the nociceptive pain threshold were calculated as paw withdrawal latency (sec) and paw withdrawal threshold (g).

RIPK3 = assay: Immunohistochemical analysis of knee joint tissue in MIA-OA animal model: RIPK3; settings: MIA-OA rat; immunohistochemistry; FIG. 8
Protocol: as §1, §2

MIA-induced OA rat model [3] = assay: Weight bearing (incapacitance meter) in MIA-induced OA rat model; settings: FIG. 2
Protocol: All animals were allowed to acclimatize for one week after introduction to the laboratory environment. On the day of the start of the experiment, monosodium iodoacetate (MIA, Sigma, Cat. No. 12512) was dissolved in saline for injection at a concentration of 30 mg/mL, and 50 μL of the solution was administered once on the day of the start of the experiment. The animals were divided into groups as follows. The animals were randomly distributed so that the average of each group was distributed as evenly as possible according to the pain threshold evaluation values ranked, so as to obtain the number specified in the “Constitution of Test Groups” table. Individual identification was done by writing numbers directly on the tails of the animals. […]
Weight bearing was measured using the same model as that in Experimental Example 1. […] The weight bearing of each hind paw was measured using an incapacitance meter (Model 600, IITC, USA), a device for measuring weight bearing. […]
When each animal was correctly positioned in the holder, the machine was operated, the measurement time was set to 5 seconds, and a total of two measurements were taken and averaged to determine the weight bearing (g) of each paw. […] The results of the weight-bearing measurement test were converted into weight bearing ratio using the following calculation formula and analyzed.

[4] = oral once a day, 21 days, FIG. 4

CCOc1ccc(C2COc3c(ccc4c3CCC(C)(C)O4)C2)c(O)c1 (centres unmarked) [Compound 2]
IL-6 in knee joint tissue (Dab-positive area) (IL-6): inhibited | histopathology score efficacy compared with positive control celecoxib ([1]; OARSI and Mankin scores, FIG. 4): efficacy equivalent to that of celecoxib | Safranin 0 staining of the cartilage tissue ([1]; oral once a day, 21 days, FIG. 3): improved | Mankin score (severity of osteoarthritis) [1, 4]: reduced | ORASI score (severity of osteoarthritis) [1, 4]: reduced | MCP-1 in knee joint tissue (Dab-positive area) (MCP-1): inhibited | MMP3 in knee joint tissue (Dab-positive area) (MMP3): reduced | MMP3 reduction efficacy compared with positive control celecoxib (MMP3): better efficacy than celecoxib | pain caused by cartilage damage (nociceptive pain threshold) (MIA-induced OA rat model [2]; 25 mg/kg and 50 mg/kg orally once a day for 21 days from 3 days after MIA): gradually reduced | pain suppression efficacy compared with positive control celecoxib (MIA-induced OA rat model [2]; oral once a day, 21 days): efficacy equivalent to that of the positive control, celecoxib | RIPK3 in knee joint tissue (Dab-positive area) (RIPK3): inhibited | RIPK3 inhibition efficacy compared with positive control celecoxib (RIPK3): better efficacy than celecoxib | weight bearing following cartilage damage (MIA-induced OA rat model [3]; 25 mg/kg and 50 mg/kg orally once a day for 21 days): reduced | weight bearing efficacy compared with positive control celecoxib (MIA-induced OA rat model [3]; oral once a day, 21 days): efficacy equivalent to that of celecoxib
